According to patent US20060276393A1, “Novel compositions for preventing and treating neurodegenerative and blood coagulation disorders” (Sirtris Pharmaceuticals, Inc., priority 2005, published 2006):
Values joined by “and” are separate entries in the source; they are usually repeats but may differ in a detail not shown here. Equal entries are not always repeated. “Also recorded” adds a separate entry of the source. Values belong to the compound of their own block, whether it stands above or below them.

Legend:
D. melanogaster = D. melanogaster lifespan; assay type: in vivo
Protocol: Females (a) and males (b) with loss-of-function genotype dSir2^4.5/dSir2^5.26. Females (c) and males (d) with strong hypomorphic genotype dSir2^17/dSir2^KG00871.
Survival assays were conducted independently with adult D. melanogaster in two laboratories. In the first laboratory, all trials used an yw marked wild-type strain. Larvae were reared on standard cornmeal-sugar-yeast (CSY) agar diet (cornmeal 5%, sucrose 10.5%, SAF yeast 2%, and agar 0.7%). Newly eclosed adults were placed in 1 L demography cages with approximately 75 males and 75 females. Three to four replicate 1 L demography cages were used for each treatment group in each trial. Every two days, dead flies were removed and scored, and food vials were replenished. Food vials contained cornmeal-sugar-yeast diet with SAF yeast as either 2% or 3% by weight. Test compounds in 100 μl of EtOH (or blank EtOH in controls) were mixed into melted aliquots of the adult food media to make a final concentration of 0, 10 or 100 μM. Fresh stock solutions and adult media were prepared weekly. In the second laboratory, lifespan trials were conducted with the wild type strain Canton-S, dSir2^4.5 and dSir2^5.26 (S. Smolik, University of Oregon), dSir2^17 (S. Astrom, Stockholm University, Sweden), and dSir2^KG00871 (Drosophila Stock Center, Bloomington, Ind.). Larvae for all tests were reared on standard cornmeal-sugar-yeast diet. Newly eclosed adults were incubated in plastic shell vials containing 5 ml of 15% sugar-yeast diet (15% SY) or 5% sugar-yeast (5% SY) diet (15% SY: 15% yeast, 15% sucrose, 2% agar; 5% SY: 5% yeast, 5% sucrose, 2% agar as per Ref. ^20). In all trials, ˜20 males with ˜20 females were placed into each of 10 vials/treatment group. Every two days, flies were passed into new vials and dead flies were counted. […] Final compound concentrations were 0, 10, 100 or 200 μM. Fresh stock solution and adult media was prepared weekly.

S. cerevisiae = test: Yeast replicative lifespan; assay type: cell-based; conditions: for Average lifespan: 10 μM compound, 2% glucose medium, wild type untreated 22.9; for % change in yeast replicative lifespan relative to untreated organisms (10 μM): 2% (w/v) glucose YPD, untreated 100%
Protocol: Average lifespan for wild type, 22.9 generations, quercetin, 23.4; piceatannol. […]
All yeast strains were grown at 30° C. in complete yeast extract/bactopeptone, 2.0% (w/v) glucose (YPD) medium except where stated otherwise. Calorie restriction was induced in 0.5% glucose. Synthetic complete (SC) medium consisted of 1.67% yeast nitrogen base, 2% glucose, 40 mg/litre each of auxotrophic markers. SIR2 was integrated in extra copy and disrupted as described^5. Other strains are described elsewhere^26. For cellular deacetylation assays, HeLa S3 cells were used. U20S osteosarcoma and human embryonic kidney (HEK 293) cells were cultured adherently in Dulbecco's Modified Eagle's Medium (DMEM) containing 10% fetal calf serum (FCS) with 1.0% glutamine and 1.0% penecillin/streptomycin. HEK 293 overexpressing dominant negative SIRT1 H363Y was a gift of R. Frye (U. Pittsburgh).
Lifespan measurements were performed using PSY316AT MATα as previously described^35. All compounds for lifespan analyses were dissolved in 95% ethanol and plates were dried and used within 24 hours. Prior to lifespan analysis, cells were pre-incubated on their respective media for at least 15 hours. Following transfer to a new plate, cells were equilibrated on the medium for a minimum of 4 hours prior to micro-manipulating them. At least 30 cells were examined per experiment and each experiment was performed at least twice. Statistical significance of lifespan differences was determined using the Wilcoxon rank sum test. Differences are stated to be significant when the confidence is higher than 95%.

recombinant human SIRT1 = biological target: T1, recombinant human SIRT1 (Homo sapiens, UniProt Q96EB6); test: SIRT1 fluorescent deacetylation assay (p53-382 acetylated peptide); assay type: biochemical; conditions: for SIRT1 stimulating activity (in words): 25 μM NAD+, 25 μM p53-382 acetylated peptide, compounds at 100 μM
T1 sequence (Q96EB6 1-747): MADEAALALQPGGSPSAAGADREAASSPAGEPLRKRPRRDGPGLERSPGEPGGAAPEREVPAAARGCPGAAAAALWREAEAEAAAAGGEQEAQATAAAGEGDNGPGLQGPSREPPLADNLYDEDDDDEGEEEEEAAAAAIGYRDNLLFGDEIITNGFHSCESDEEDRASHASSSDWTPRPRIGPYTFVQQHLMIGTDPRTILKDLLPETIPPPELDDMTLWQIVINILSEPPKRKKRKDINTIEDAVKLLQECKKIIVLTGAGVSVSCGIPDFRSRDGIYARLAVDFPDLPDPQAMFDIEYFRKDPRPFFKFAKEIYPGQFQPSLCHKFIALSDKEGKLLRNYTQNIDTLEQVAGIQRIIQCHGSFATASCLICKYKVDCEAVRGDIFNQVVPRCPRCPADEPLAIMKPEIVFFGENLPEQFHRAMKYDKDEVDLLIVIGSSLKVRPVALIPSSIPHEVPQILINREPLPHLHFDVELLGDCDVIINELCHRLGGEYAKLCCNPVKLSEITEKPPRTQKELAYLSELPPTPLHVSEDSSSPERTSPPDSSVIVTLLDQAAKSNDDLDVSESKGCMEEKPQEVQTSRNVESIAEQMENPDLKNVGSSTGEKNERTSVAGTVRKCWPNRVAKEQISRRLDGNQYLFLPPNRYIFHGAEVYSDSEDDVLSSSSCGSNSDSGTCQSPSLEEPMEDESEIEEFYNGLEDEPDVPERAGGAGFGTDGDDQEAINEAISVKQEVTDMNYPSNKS
Source text: Lines represent non-linear least-squares fits to the Michaelis-Menten equation. […] Lines represent non-linear least-squares fits to the Michaelis-Menten equation. […] Error bars are standard errors of the mean.
To identify compounds that modulate SIRT1 activity, a number of small molecule libraries were screened using a fluorescent deacetylation assay in 96-well plates^26. The substrate used in the assay was a fluorogenic peptide based on the sequence encompassing the p53-K382 acetylation site, a known target of SIRT1 in vivo^20,21,27. […] The small molecule libraries included analogues of nicotinamide, ε-acetyl lysine, NAD^+, nucleotides, nucleotide analogues and purinergic ligands.
His6-tagged recombinant SIRT1 and GST-tagged recombinant Sir2 were prepared as previously described^26. From 0.1 to 1 μg of SIRT1 and 1.5 μg of Sir2 were used per deacetylation assay (in 50 μl total reaction) as previously described^26.
Themed compound libraries (BIOMOL) were used for primary and secondary screening. Most polyphenol compounds were dissolved at 10 mM in dimethylsulfoxide (DMSO) on the day of the assay. For water soluble compounds and negative controls, 1% v/v DMSO was added to the assay. […] Unless otherwise indicated all initial rate measurements were means of three or more replicates, obtained with single incubation times, at which point 5% or less of the substrate initially present had been deacetylated. Calculation of net fluorescence increases included subtraction of a blank value, which in the case of Sir2 was obtained by omitting the enzyme from the reaction and in the case of SIRT1 by adding an inhibitor (200 μM suramin or 1 mM nicotinamide) to the reaction prior to the acetylated substrate. […] All error bars represent the standard error of the mean.

HDAC = conditions: in vitro or in vivo, literature; cited from earlier work
Human 293 = test: Survival of 293 cells; conditions: 50 micromolar
[1] = biological target: T2, SIRT1 deacetylase (BIOMOL) (Homo sapiens, UniProt Q96EB6); test: High-throughput SIRT1 screening protocol (ICCB library); assay type: biochemical; conditions: positive controls; 200 μM NAD+, 5 μM Fluor de Lys-SIRT1; resveratrol 50 μM
T2 construct: purchased BIOMOL
T2 sequence (Q96EB6 1-747): T1 sequence (Q96EB6 1-747)
Protocol: The reaction mixture contains (final): 0.5 units/reaction SIRT1 deacetylase (BIOMOL); 200 μM NAD^+; 5 μM Fluor de Lys-SIRT1 substrate (BIOMOL); buffer (25 mM Tris/Cl, pH 8.0, 137 mM NaCl, 2.7 mM KCl, 1 mM MgCl2, and 1 mg/ml BSA). In addition, a reaction mixture containing no enzyme was made so that each well receiving compound has a corresponding “no enzyme control” well. Reactions were performed in black 384 well plates (NUNC) in a final volume of 25 μl/well.
The reactions were started by combining enzyme and substrate in a reaction mixture immediately prior to aliquoting in plates (or substrate only for “no enzyme control” plates). Mixture were aliquoted to plates using Biotek μfill (Biotek Instruments). Control mixtures were manually added to designated wells. A library compound was added at a desired concentration by pin transfer to both “with enzyme” and “no enzyme” plates. Compounds were added in at least triplicate (with enzyme reaction in duplicate and no enzyme controls) at a final concentration of roughly 50 μM. The plates were incubated at 37° C for 30-60 minutes. Then 25 μl of 1× Developer II (BIOMOL) plus 2 mM nicotinamide were added to all wells to stop the reactions. The reactions were left for at least 30 minutes at 37° C. for the signal to develop. The plates were read in a microplate-reading fluorometer capable of excitation at a wavelength in the range of 350-380 nm and detection of emitted light in the range of 440-460 nm. A read time of 0.1 sec per well was used.

Compound: O=c1c(O)c(-c2ccc(O)c(O)c2)oc2cc(O)ccc12 [fisetin, 3,7,3′,4′-Tetrahyddroxyflavone]
longevity on restricted diet (D. melanogaster; restricted diet): neither resveratrol nor fisetin further increased longevity
lifespan extended (maximum) (D. melanogaster; wild type Canton-S and yw, males and females, normal diet): up to 23%
increase of average lifespan (S. cerevisiae; 10 μM): 55%
maximum lifespan (in words) (S. cerevisiae; 10 μM): significantly increased maximum lifespan
Average lifespan (S. cerevisiae): 30.0 generations

Compound: 5,7,4′-Trihydroxyflavanone [genistein]
SIRT1 stimulating activity (in words) (recombinant human SIRT1): absence of activity

Compound: trichostatin A [TSA]
HDAC inhibition (in words) (HDAC): potent inhibitor of mammalian HDAC

Compound: Oc1cc(O)cc(/C=C/c2ccc(F)cc2)c1 [BML-212, 3,5-Dihydroxy-4′-fluoro-trans-stilbene]
% change in yeast replicative lifespan relative to untreated organisms (10 μM) (S. cerevisiae; 10 μM): 98%

SIRT1 stimulating activity (in words) (recombinant human SIRT1): abolished activity
Compound: O=C(Nc1cc(O)cc(O)c1)c1ccccc1 [BML-219, N-(3,5-Dihydroxyphenyl)benzamide]

Compound: depudecin
HDAC inhibition (in words) (HDAC): micromolar concentrations

Compound: Cc1ccc(/C=C/c2cc(O)cc(O)c2)cc1 [BML-228]
Survival of 293 cells (Human 293; 0 h): 100%
Survival of 293 cells (Human 293; 48 h): 46%
Survival of 293 cells (Human 293; 96 h): 32%
SIRT1 stimulating activity (in words) (recombinant human SIRT1): did the least to decrease activity

activated SIRT1 [1]: 3.28 fold
SIRT1 stimulating activity (in words) (recombinant human SIRT1): did the least to decrease activity
Compound: Oc1cc(O)cc(/C=C/c2ccccc2)c1 [Pinosylvin, 3,5-Dihydroxy-trans-stilbene]
% change in yeast replicative lifespan relative to untreated organisms (10 μM) (S. cerevisiae; 10 μM): 114%
SIRT1 stimulating activity (in words) (recombinant human SIRT1; listed as pinosylvin): did not significantly diminish the SIRT1 activating effect

stimulated SIRT1 activity (recombinant human SIRT1; initial library screen, fluorogenic p53-K382 peptide (Table 1)): eight
Compound: Oc1cc(O)cc(/C=C/c2ccc(O)c(O)c2)c1 [piceatannol, 3,5,3′,4′-Tetrahydroxy-trans-stilbene]
effect on lifespan (in words) (S. cerevisiae; 10 μM): no significant effect on lifespan
Average lifespan (S. cerevisiae): 24.0 generations

Compound: O=C(/C=C/c1cccc(C(=O)NO)c1)NO [CBHA, m-carboxy-cinnamic acid bishydroxamic acid]
HDAC inhibition (in words) (HDAC): micromolar concentration or lower

Compound: O=c1c(O)c(-c2ccc(O)c(O)c2)oc2cc(O)cc(O)c12 [quercetin, 3,5,7,3′,4′-Pentahydroxyflavone]
effect on lifespan (in words) (S. cerevisiae; 10 μM): no significant effect on lifespan
Average lifespan (S. cerevisiae): 23.4 generations

SIRT1 Vmax decrease (recombinant human SIRT1; 50 μM nicotinamide, absence of resveratrol, NAD+ or acetylated peptide varied): 30% and 36%
Compound: NC(=O)c1cccnc1 [Nicotinamide, nicotinamide]

Compound: CSc1ccc(/C=C/c2cc(O)cc(O)c2)cc1 [BML-230]
Survival of 293 cells (Human 293; 0 h): 100%
Survival of 293 cells (Human 293; 48 h): 55%
Survival of 293 cells (Human 293; 96 h): 57%
toxicity on 293 cells (in words) (Human 293; 96 hours): least toxic on 293 cells
v1/v2, ratio of BML-230-stimulated to resveratrol-stimulated SIRT1 rate (recombinant human SIRT1; R at 500 μM): ≤ 1.4
BML-230-stimulated SIRT1 activity compared with resveratrol (recombinant human SIRT1; dose response, 25 μM each NAD+ and p53-382 peptide, 20 min): exceeds that stimulated by resveratrol at all concentrations tested
dissociation constant of SIRT1/activator complex (comparison) (recombinant human SIRT1; inferred from two state model, FIG. 9b): lower dissociation constant than SIRT1/resveratrol

Compound: Oc1cc(O)cc(/C=C/c2ccc(Cl)cc2)c1 [BML-217, 3,5-Dihydroxy-4′-chloro-trans-stilbene]
% change in yeast replicative lifespan relative to untreated organisms (10 μM) (S. cerevisiae; 10 μM): 90%
SIRT1 stimulating activity (in words) (recombinant human SIRT1): did the least to decrease activity; also recorded: did not significantly diminish the SIRT1 activating effect

Compound: Oc1cc(O)cc(/C=C/C2CCCCC2)c1 [BML-224]
SIRT1 stimulating activity (in words) (recombinant human SIRT1): nearly as detrimental to SIRT1 stimulating activity

Compound: C/C=C1\NC(=O)[C@H]2CSSCC/C=C/[C@H](CC(=O)N[C@H](C(C)C)C(=O)N2)OC(=O)[C@H](C(C)C)NC1=O [Depsipeptide]
HDAC inhibition (in words) (HDAC): micromolar concentrations

Compound: CCc1ccc(/C=C/c2cc(O)cc(O)c2)cc1 [BML-225]
Survival of 293 cells (Human 293; 0 h): 100%
Survival of 293 cells (Human 293; 48 h): 5%
Survival of 293 cells (Human 293; 96 h): 8%
